Source: patent publication US8865706B2, “Heteroaryl-substituted hexahydropyrano[3,4-d][1,3]thiazin-2-amine compounds” (Pfizer Inc., priority 2013, dated 2014)

How the values were obtained:
BACE1 enzyme = BACE1 enzyme (Homo sapiens (Human), UniProt P56817); assay: BACE1 Cell-Free Assay (fluorescence polarization, cleavage of synthetic APP substrate); assay type: biochemical; settings: average of 2 determinations; values marked b: geometric mean of 3-9 determinations
Description: This assay measures the inhibition of the beta-secretase enzyme as it cleaves a non-native peptide.
A synthetic APP substrate that can be cleaved by beta-secretase having N-terminal biotin and made fluorescent by the covalent attachment of Oregon Green at the Cys residue is used to assay beta-secretase activity in the presence or absence of the inhibitory compounds. […] The BACE1 enzyme is affinity purified material from conditioned media of CHO-K1 cells that have been transfected with a soluble BACE construct (BACE1deltaTM96His). Compounds are incubated in a ½ log dose response curve from a top concentration of 100 μM with BACE1 enzyme and the biotinylated fluorescent peptide in 384-well black plates (Thermo Scientific #4318). BACE1 is at a final concentration of 0.1 nM with a final concentration of peptide substrate of 150 nM in a reaction volume of 30 μL assay buffer [100 mM sodium acetate, pH 4.5 (brought to pH with acetic acid), and 0.001% Tween-20]. Plates are covered and incubated for 3 hours at 37° C. The reaction is stopped with the addition of 30 μL of 1.5 μM Streptavidin (Pierce, #21125). After a 10 minute incubation at room temperature, plates are read on a PerkinElmer EnVision for fluorescence polarization (Ex485 nm/Em530 nm). The activity of the beta-secretase enzyme is detected by changes in the fluorescence polarization that occur when the substrate is cleaved by the enzyme.

[1] = system: sAPPβ levels in H4 human neuroglioma cells over-expressing the wild-type human APP695; assay: Whole Cell Assay (In Vitro sAPPb Assay); assay type: cell-based; settings: Homo sapiens, 18 hours treatment, average of 2 determinations, values marked b: geometric mean of 3-9 determinations
Method: Whole Cell Assay (In Vitro sAPPb Assay):
H4 human neuroglioma cells over-expressing the wild-type human APP695 are treated for 18 hours with compound in a final concentration 1% DMSO. sAPPβ levels are measured using TMB-ELISA with capture APP N-terminal antibody (Affinity BioReagents, OMA1-03132), wild-type sAPPβ specific reporter p192 (Elan), and tertiary anti rabbit-HRP (GE Healthcare).

Sequence of BACE1 enzyme (P56817 46-457): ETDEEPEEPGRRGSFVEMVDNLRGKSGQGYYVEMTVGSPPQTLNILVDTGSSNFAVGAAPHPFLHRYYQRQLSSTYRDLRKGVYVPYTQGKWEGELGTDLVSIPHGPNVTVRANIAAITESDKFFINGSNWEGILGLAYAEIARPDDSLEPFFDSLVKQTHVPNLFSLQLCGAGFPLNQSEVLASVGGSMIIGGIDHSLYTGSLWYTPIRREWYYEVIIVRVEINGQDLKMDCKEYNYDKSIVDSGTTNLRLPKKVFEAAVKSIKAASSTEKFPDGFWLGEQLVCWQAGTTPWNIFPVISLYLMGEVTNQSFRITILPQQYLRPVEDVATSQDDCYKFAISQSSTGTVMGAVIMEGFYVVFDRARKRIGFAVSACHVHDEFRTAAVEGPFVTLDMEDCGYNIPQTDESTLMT

Row | IC50 (BACE1 enzyme) | IC50 [1] | Structure (SMILES)
1 | 877 nM | 25.2 nM | Cn1cc([C@H]2C[C@H]3CSC(N)=N[C@@]3(c3ccc(F)cc3F)CO2)nn1 [Example 18, (4aR,6R,8aS)-8a-(2,4-Difluorophenyl)-6-(1-methyl-1H-1,2,3-triazol-4-yl)-4,4a,5,6,8,8a-hexahydropyrano[3,4-d][1,3]thiazin-2-amine]
2 | 1400 nM | 60.3 nM | Cc1ncc([C@H]2C[C@H]3CSC(N)=N[C@@]3(c3ccc(F)cc3F)CO2)cn1 [Example 17, (4aR,6R,8aS)-8a-(2,4-difluorophenyl)-6-(2-methylpyrimidin-5-yl)-4,4a,5,6,8,8a-hexahydropyrano[3,4-d][1,3]thiazin-2-amine]
3 | 5020 nM | 40.8 nM | NC1=N[C@@]2(c3ccc(F)cc3F)CO[C@@H](c3nc4ccncc4o3)C[C@H]2CS1 [Example 23, (4aR,6R,8aS)-8a-(2,4-Difluorophenyl)-6-([1,3]oxazolo[5,4-c]pyridin-2-yl)-4,4a,5,6,8,8a-hexahydropyrano[3,4-d][1,3]thiazin-2-amine]
4 | 36200 nM | 1360 nM | Cc1cnc([C@@H]2C[C@@H]3CSC(N)=N[C@]3(c3ccc(F)cc3F)CO2)cn1 [Example C89, (4aS,6S,8aR)-8a-(2,4-difluorophenyl)-6-(5-methylpyrazin-2-yl)-4,4a,5,6,8,8a-hexahydropyrano[3,4-d][1,3]thiazin-2-amine]
5 | 5400 nM | 123 nM | CCOc1cc([C@H]2C[C@H]3CSC(N)=N[C@@]3(c3ccc(F)cc3F)CO2)nn1C [Example 21, (4aR,6R,8aS)-8a-(2,4-Difluorophenyl)-6-(5-ethoxy-1-methyl-1H-pyrazol-3-yl)-4,4a,5,6,8,8a-hexahydropyrano[3,4-d][1,3]thiazin-2-amine]
